According to ChEMBL document CHEMBL3525915, “Elucidation of a novel bioactivation pathway of a 3,4-unsubstituted isoxazole in human liver microsomes: formation of a glutathione adduct of a cyanoacrolein derivative after isoxazole ring opening” (Drug Metab Dispos, 2011):

Experiments:
Liver microsome [1] = test: Drug metabolism in human liver microsomes treated with 20 uM N-((2-isopropyl-7-methyl-1-oxoisoindolin-5-yl)methyl)isoxazole-5-carboxamide assessed compound formation in presence of NADPH using [13C]-labeled CH3OH drug stock solution at 37 degC incubated for 1 hr by liquid chromatography; assay type: ADME
[2] = Drug level in 0.1 N NaOH aqueous solution assessed as compound formation treated with 40 uM N-((2-isopropyl-7-methyl-1-oxoisoindolin-5-yl)methyl)isoxazole-5-carboxamide for 20 mins by LC-MS/MS analysis; assay type: physicochemical; conditions: buffer
[3] = Drug level in 0.1 N NaOH aqueous solution assessed as compound formation treated with 40 uM N-((2-isopropyl-7-methyl-1-oxoisoindolin-5-yl)methyl)isoxazole-5-carboxamide for 20 mins at pH 7.5 by LC-MS/MS analysis in presence of formaldehyde and GSH; assay type: physicochemical; conditions: buffer, pH 7.5, 20 min
Liver microsome [4] = test: Retention time of the compound in human liver microsomes in presence of NADPH at 37 degC incubated for 1 hr by liquid chromatography; assay type: ADME
Liver microsome [5] = test: Drug level in human liver microsomes assessed as compound formation treated with 20 uM N-((2-isopropyl-7-methyl-1-oxoisoindolin-5-yl)methyl)isoxazole-5-carboxamide (drug stock solution contained 1% methanol) LC-MS/MS analysis in presence of NADPH and GSH; assay type: ADME
Liver microsome [6] = test: Drug level in human liver microsomes assessed as compound formation treated with 20 uM N-((2-isopropyl-7-methyl-1-oxoisoindolin-5-yl)methyl)isoxazole-5-carboxamide (drug stock solution contained 1% acetonitrile) LC-MS/MS analysis in presence of NADPH and GSH; assay type: ADME
Liver microsome [7] = test: Drug metabolism in human liver microsomes assessed as (Z)-3-cyano-2-hydroxy-N-((2-isopropyl-7-methyl-1-oxoisoindolin-5-yl)methyl)acrylamide formation at 20 uM for 1 hr by LC-MS/MS analysis in presence of NADPH; assay type: ADME
Liver microsome [8] = test: Drug metabolism in human liver microsomes assessed as 2-amino-5-(1-(carboxymethylamino)-3-(3-cyano-5-((2-isopropyl-7-methyl-1-oxoisoindolin-5-yl)methylamino)-4,5-dioxopentan-2-ylthio)-1-oxopropan-2-ylamino)-5-oxopentanoic acid formation at 20 uM (drug stock solution contained ethanol) by LC-MS/MS analysis in presence of NADPH; assay type: ADME
Liver microsome [9] = test: Drug metabolism in human liver microsomes assessed as metabolite formation at 20 uM (drug stock solution contained 1% acetonitrile) LC-MS/MS analysis in presence of NADPH and GSH; assay type: ADME
Liver microsome [10] = test: Drug metabolism in human liver microsomes assessed ratio of sum peak areas of metabolite M1 and M2 to peak area of internal standard at 20 uM in presence of NADPH and 1 mM 1-ABT at 37 degC incubated for 1 hr by liquid chromatography; assay type: ADME
Liver microsome [11] = test: Drug metabolism in human liver microsomes assessed metabolite formation at 20 uM in absence of NADPH at 37 degC incubated for 1 hr by liquid chromatography; assay type: ADME
Liver microsome [12] = test: Drug metabolism in human liver microsomes assessed ratio of sum peak areas of metabolite M1 and M2 to peak area of internal standard at 20 uM in presence of NADPH and in absence of 1 mM 1-ABT at 37 degC incubated for 1 hr by liquid chromatography; assay type: ADME
Liver microsome [13] = test: Drug level in human liver microsomes assessed as compound formation treated with 20 uM N-((2-isopropyl-7-methyl-1-oxoisoindolin-5-yl)methyl)isoxazole-5-carboxamide for 1 hr by LC-MS/MS analysis in presence of NADPH; assay type: ADME
Liver microsome [14] = test: Drug level in human liver microsomes assessed as compound formation treated with 20 uM N-((2-isopropyl-7-methyl-1-oxoisoindolin-5-yl)methyl)isoxazole-5-carboxamide (drug stock solution contained 1% ethanol) LC-MS/MS analysis in presence of NADPH; assay type: ADME
Liver microsome [15] = test: Drug level in human liver microsomes assessed as compound formation treated with 20 uM N-((2-isopropyl-7-methyl-1-oxoisoindolin-5-yl)methyl)isoxazole-5-carboxamide (drug stock solution contained 1% acetonitrile) LC-MS/MS analysis in presence of NADPH; assay type: ADME

## Cc1cc(CNC(=O)C(=O)C(C#N)CSC[C@H](NC(=O)CC[C@H](N)C(=O)O)C(=O)NCC(=O)O)cc2c1C(=O)N(C(C)C)C2 (some centres not stated)
Liver microsome [1]
  Drug metabolism: metabolite_detected
[2]
  Drug metabolism: metabolite_detected
[3]
  Drug metabolism: metabolite_detected
Liver microsome [4]
  Retention_time: 9.72 min
Liver microsome [5]
  Drug metabolism: metabolite_detected
Liver microsome [6]
  Drug metabolism: metabolite_not_detected

## Cc1cc(CNC(=O)c2ccno2)cc2c1C(=O)N(C(C)C)C2
Liver microsome [7]
  Drug metabolism: metabolite_detected
Liver microsome [8]
  Drug metabolism: metabolite_detected
Liver microsome [9]
  Drug metabolism: metabolite_not_detected
Liver microsome [10]
  Ratio: 0.128
Liver microsome [4]
  Retention_time: 17.06 min
Liver microsome [11]
  Drug metabolism: metabolite_not_detected
Liver microsome [12]
  Ratio: 1.22

## Cc1cc(CNC(=O)/C(O)=C/C#N)cc2c1C(=O)N(C(C)C)C2
Liver microsome [13]
  Drug metabolism: metabolite_detected
[2]
  Drug metabolism: metabolite_detected
Liver microsome [4]
  Retention_time: 13.55 min

## Cc1cc(CNC(=O)C(=O)CC#N)cc2c1C(=O)N(C(C)C)C2
[2]
  Drug metabolism: metabolite_detected
Liver microsome [4]
  Retention_time: 12.69 min

## Cc1cc(CNC(=O)C(=O)C(C#N)C(C)SC[C@H](NC(=O)CC[C@H](N)C(=O)O)C(=O)NCC(=O)O)cc2c1C(=O)N(C(C)C)C2 (single isomer, unassigned; diastereomer 1)
Liver microsome [4]
  Retention_time: 10.82 min

## Cc1cc(CNC(=O)C(=O)C(C#N)C(C)SC[C@H](NC(=O)CC[C@H](N)C(=O)O)C(=O)NCC(=O)O)cc2c1C(=O)N(C(C)C)C2 (single isomer, unassigned; diastereomer 2)
Liver microsome [14]
  Drug metabolism: metabolite_detected
Liver microsome [4]
  Retention_time: 10.08 min
Liver microsome [15]
  Drug metabolism: metabolite_not_detected
